{"source": "paper PMC11465873", "about": "“Functional Properties and Components of Koenigia alpina Extract” (Skin Research and Technology, 2024)", "key": {"elastase": {"biological_target": "T1, elastase", "T1 construct": "gene CELA1", "assay": "absorbance at […] nm, nitroanilide release", "type": "biochemical", "details": "N-(methoxysuccinyl)-Ala-Ala-Pro-Val-4-nitroanilide substrate; 0.2 M Tris-HCl; 30 min; positive control"}, "collagenase": {"biological_target": "T2, collagenase", "T2 construct": "gene colG", "assay": "modified ninhydrin assay, absorbance at […] nm", "type": "biochemical", "details": "collagen substrate; 5 h at 37°C; calcium chloride; positive control"}}}
{"compound": "O=C(O[C@@H]1Cc2c(O)cc(O)cc2O[C@@H]1c1cc(O)c(O)c(O)c1)c1cc(O)c(O)c(O)c1", "note": "[Epigallocatechin gallate]", "values": [{"measurement": "IC50", "setting": "elastase", "value": 2620, "unit": "µg/mL"}, {"measurement": "IC50", "setting": "collagenase", "value": 40, "unit": "µg/mL"}]}
